Data taken from ChEMBL document CHEMBL1201862, “PubChem BioAssay data set” (2004).
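Grown in 96-well plates, cells were treated for 48 hours with each compound at five concentrations. Insufficient inhibition: endpoint recorded as highest concentration tested. GI50 marks 50% less growth.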 Active and inactive are the calls of the source. Cut-off read from the data, not from the text of the source: active = GI50 up to about 1.1 µM and inactive = higher.

Legend:
Assay in all cases: DTP human tumour cell line panel, 48 h
[1] = test system: TK-10
[2] = test system: SNB-75
[3] = test system: MDA-N
[4] = test system: SF-539
[5] = test system: OVCAR-8
[6] = test system: NCI-H23
[7] = test system: KM12
[8] = test system: A549
[9] = test system: CAKI-1
[10] = test system: A498
[11] = test system: 786-0
[12] = test system: DU-145
[13] = test system: SF-295
[14] = test system: UO-31
[15] = test system: HT-29
[16] = test system: SR
[17] = test system: HCT-15
[18] = test system: SK-OV-3
[19] = test system: MDA-MB-231
[20] = test system: ACHN
[21] = test system: MCF7
[22] = test system: IGROV-1
[23] = test system: EKVX
[24] = test system: HL-60
[25] = test system: OVCAR-3
[26] = test system: T47D
[27] = test system: OVCAR-5
[28] = test system: MDA-MB-435
[29] = test system: MOLT-4
[30] = test system: NCI/ADR-RES
[31] = test system: NCI-H522
[32] = test system: Malme-3M
[33] = test system: K562
[34] = test system: HOP-92
[35] = test system: SNB-19
[36] = test system: BT-549
[37] = test system: CCRF-CEM
[38] = test system: RXF 393
[39] = test system: SF-268
[40] = test system: HOP-62
[41] = test system: SW-620
[42] = test system: LOX IMVI
[43] = test system: SK-MEL-5
[44] = test system: NCI-H226
[45] = test system: UACC-257
[46] = test system: M14
[47] = test system: UACC-62
[48] = test system: COLO 205
[49] = test system: HCT-116
[50] = test system: SN12C
[51] = test system: SK-MEL-2
[52] = test system: RPMI-8226
[53] = test system: Hs-578T
[54] = test system: U-251
[55] = test system: NCI-H460
[56] = test system: PC-3
[57] = test system: OVCAR-4
[58] = test system: SK-MEL-28

SMILES: CCc1ccc(Nc2cc(=O)n(C)c(SCc3ccccc3)n2)cc1
- GI50 [1]: > 100 µM (inactive)
- GI50 [2]: > 100 µM (inactive)
- GI50 [3]: > 100 µM (inactive)
- GI50 [4]: 30.2 µM (inactive)
- GI50 [5]: > 100 µM (inactive)
- GI50 [6]: > 100 µM (inactive)
- GI50 [7]: 66.4 µM (inactive)
- GI50 [8]: 29 µM (inactive)
- GI50 [9]: > 100 µM (inactive)
- GI50 [10]: 14.5 µM (inactive)
- GI50 [11]: 17.5 µM (inactive)
- GI50 [12]: > 100 µM (inactive)
- GI50 [13]: 57.4 µM (inactive)
- GI50 [14]: > 100 µM (inactive)
- GI50 [15]: 21.9 µM (inactive)
- GI50 [16]: 35.7 µM (inactive)
- GI50 [17]: 62.2 µM
- GI50 [18]: 85.1 µM (inactive)
- GI50 [19]: 59.7 µM (inactive)
- GI50 [20]: 75.3 µM (inactive)
- GI50 [21]: 28.6 µM (inactive)
- GI50 [22]: 83.9 µM (inactive)
- GI50 [23]: 60.5 µM (inactive)
- GI50 [24]: 39.8 µM (inactive)
- GI50 [25]: 29.4 µM (inactive)
- GI50 [26]: 95.3 µM (inactive)
- GI50 [27]: 30.8 µM (inactive)
- GI50 [28]: 80.4 µM (inactive)
- GI50 [29]: > 100 µM (inactive)
- GI50 [30]: > 100 µM (inactive)
- GI50 [31]: 36.1 µM (inactive)
- GI50 [32]: 57.3 µM (inactive)
- GI50 [33]: > 100 µM (inactive)
- GI50 [34]: 20.3 µM (inactive)
- GI50 [35]: 52.6 µM (inactive)
- GI50 [36]: > 100 µM (inactive)
- GI50 [37]: 78 µM (inactive)
- GI50 [38]: 23.1 µM (inactive)
- GI50 [39]: 97.7 µM (inactive)
- GI50 [40]: 69.3 µM (inactive)
- GI50 [41]: 41.6 µM (inactive)
- GI50 [42]: 33 µM (inactive)
- GI50 [43]: 51.2 µM (inactive)
- GI50 [44]: 33.4 µM (inactive)
- GI50 [45]: > 100 µM (inactive)
- GI50 [46]: > 100 µM (inactive)
- GI50 [47]: > 100 µM (inactive)
- GI50 [48]: 12.7 µM (inactive)
- GI50 [49]: 18.2 µM (inactive)
- GI50 [50]: 20 µM (inactive)
- GI50 [51]: > 100 µM (inactive)
- GI50 [52]: > 10 µM (inactive)
- GI50 [53]: 97.3 µM (inactive)

SMILES: S=c1[nH]nc(COc2ccc3c(c2)CCCC3)n1/N=C/c1ccc(Cl)cc1
- GI50 [1]: 20.1 µM (inactive)
- GI50 [54]: 19.1 µM (inactive)
- GI50 [55]: 15.8 µM (inactive)
- GI50 [3]: 17.7 µM (inactive)
- GI50 [4]: 17.6 µM (inactive)
- GI50 [5]: 16.6 µM (inactive)
- GI50 [6]: 19.5 µM (inactive)
- GI50 [7]: 16.3 µM (inactive)
- GI50 [8]: 18.7 µM (inactive)
- GI50 [9]: 18.6 µM (inactive)
- GI50 [12]: 15.5 µM (inactive)
- GI50 [13]: 17.8 µM (inactive)
- GI50 [14]: 17.1 µM (inactive)
- GI50 [17]: 20.4 µM
- GI50 [56]: 14.9 µM (inactive)
- GI50 [18]: 18.1 µM (inactive)
- GI50 [19]: 24.1 µM (inactive)
- GI50 [20]: 20.1 µM (inactive)
- GI50 [21]: 11.8 µM (inactive)
- GI50 [22]: 16.4 µM (inactive)
- GI50 [23]: 19.1 µM (inactive)
- GI50 [24]: 18.2 µM (inactive)
- GI50 [25]: 16 µM (inactive)
- GI50 [26]: 12.1 µM (inactive)
- GI50 [27]: 17.9 µM (inactive)
- GI50 [57]: 18.1 µM (inactive)
- GI50 [28]: 19.3 µM (inactive)
- GI50 [29]: 19.4 µM (inactive)
- GI50 [30]: 17.6 µM (inactive)
- GI50 [31]: 14.1 µM (inactive)
- GI50 [32]: 17 µM (inactive)
- GI50 [33]: 17.3 µM (inactive)
- GI50 [34]: 14.7 µM (inactive)
- GI50 [35]: 19.5 µM (inactive)
- GI50 [36]: 17 µM (inactive)
- GI50 [37]: 32.1 µM (inactive)
- GI50 [38]: 14.4 µM (inactive)
- GI50 [39]: 17.9 µM (inactive)
- GI50 [40]: 15.9 µM (inactive)
- GI50 [41]: 17.4 µM (inactive)
- GI50 [42]: 20.2 µM (inactive)
- GI50 [43]: 15.7 µM (inactive)
- GI50 [45]: 22.6 µM (inactive)
- GI50 [46]: 18 µM (inactive)
- GI50 [47]: 19.1 µM (inactive)
- GI50 [48]: 16.6 µM (inactive)
- GI50 [49]: 14.5 µM (inactive)
- GI50 [50]: 22.8 µM (inactive)
- GI50 [51]: 18.2 µM (inactive)
- GI50 [52]: 17.3 µM (inactive)
- GI50 [53]: 21.6 µM (inactive)
- GI50 [58]: 18.2 µM (inactive)

SMILES: O=C(Nc1ccn(C2CC(O)C(CO)O2)c(=O)n1)c1ccccc1 (stereo not drawn)
- GI50 [1]: > 100 µM (inactive)
- GI50 [2]: > 100 µM (inactive)
- GI50 [54]: > 100 µM (inactive)
- GI50 [55]: > 100 µM (inactive)
- GI50 [3]: > 100 µM (inactive)
- GI50 [4]: > 100 µM (inactive)
- GI50 [5]: > 100 µM (inactive)
- GI50 [6]: > 100 µM (inactive)
- GI50 [7]: > 100 µM (inactive)
- GI50 [8]: > 100 µM (inactive)
- GI50 [9]: > 100 µM (inactive)
- GI50 [10]: > 100 µM (inactive)
- GI50 [11]: > 100 µM (inactive)
- GI50 [12]: > 100 µM (inactive)
- GI50 [13]: > 100 µM (inactive)
- GI50 [15]: > 100 µM (inactive)
- GI50 [17]: > 100 µM
- GI50 [56]: > 100 µM (inactive)
- GI50 [18]: > 100 µM (inactive)
- GI50 [19]: > 100 µM (inactive)
- GI50 [20]: > 100 µM (inactive)
- GI50 [21]: > 100 µM (inactive)
- GI50 [22]: > 100 µM (inactive)
- GI50 [23]: > 100 µM (inactive)
- GI50 [24]: > 100 µM (inactive)
- GI50 [25]: > 100 µM (inactive)
- GI50 [26]: > 100 µM (inactive)
- GI50 [27]: > 100 µM (inactive)
- GI50 [57]: > 100 µM (inactive)
- GI50 [28]: > 100 µM (inactive)
- GI50 [29]: > 100 µM (inactive)
- GI50 [30]: > 100 µM (inactive)
- GI50 [31]: > 100 µM (inactive)
- GI50 [33]: > 100 µM (inactive)
- GI50 [35]: > 100 µM (inactive)
- GI50 [36]: > 100 µM (inactive)
- GI50 [37]: > 100 µM (inactive)
- GI50 [39]: > 100 µM (inactive)
- GI50 [40]: > 100 µM (inactive)
- GI50 [41]: > 100 µM (inactive)
- GI50 [42]: > 100 µM (inactive)
- GI50 [43]: > 100 µM (inactive)
- GI50 [44]: > 100 µM (inactive)
- GI50 [45]: > 100 µM (inactive)
- GI50 [46]: > 100 µM (inactive)
- GI50 [47]: > 100 µM (inactive)
- GI50 [48]: > 100 µM (inactive)
- GI50 [49]: > 100 µM (inactive)
- GI50 [50]: > 100 µM (inactive)
- GI50 [51]: > 100 µM (inactive)
- GI50 [52]: > 100 µM (inactive)
- GI50 [53]: > 100 µM (inactive)
- GI50 [58]: > 100 µM (inactive)
